For series [1], the system named is cancer cells. Put plainly: intracellular free zinc in cancer cells. The conditions noted are these: previously found. Type of series: cell-based. The protocol:
The concentration of intracellular free zinc is assessed using the ion-specific fluorescent probe, FluoZin-3-AM-(FluoZin-3, Molecular Probes, Inc.). […] Following treatment, cells are isolated by centrifugation. Cell pellets are washed and re-suspended in a solution of 0.5% BSA in PBS. An aliquot of 10^6 cells (200 μL) is removed, centrifuged, and treated with FluoZin-3 reaction buffer An aliquot of the cell suspension is supplemented with 2 μg/mL propidium iodide (Sigma Biochemical), incubated for 5 minutes, and subjected to two-parameter flow cytometric analysis. See, e.g., FIG. 27.

For series [2] the following is noted: zinc binding motif, well known; cited from earlier work.
Series [3] has as its system PC3 prostate cancer cells. To be noted: PC3 xenograft. The protocol:
(§1) Human cell lines (A549 lung carcinoma, PC3 and DU145 prostatic carcinoma, and potentially others) were used. Mice received XRT (whole body radiation) up to 2 days prior to inoculation to minimize tumor regression due to residual immunological systems. The animal was administered a sub-lethal dose of whole body radiation of up to 4.5 Gy. The published literature indicates the LD50/30 dose for whole body radiation in the mouse to be 6.2 Gy. At the time of tumor implantation, mice were anesthetized by isoflurane inhalation or by IP injection of a ketamine/xylazine cocktail. Using vernier calipers, tumor size was measured; and tumor volume calculated on day 0 of study, at a minimum of 2-3 times/week and immediately prior to scheduled sacrifice. The tumor volume was estimated using the formula for a prolate ellipsoid: V=[(length)×(width)^2]/2 or hemi-ellipsoid: V=π/6×(length)×(width)×(height). When tumors reached a predetermined tumor volume animals were divided into treatment groups followed by test/control article dosing. Maximum allowable tumor burden prior to sacrifice is a mean surface diameter of 20 mm or not more than 10% of the animal's body weight as described in the NIH tumor burden guidelines for mice.
In this example, the ionophore was formulated in 5% mannitol.

The subject of series [4] is DU145 prostate cancer cells. The conditions noted are these: DU145 xenograft, intravenous 60 μmol/kg q.d.×4, formulated in 30% THPB-P beta-cyclodextrin vehicle, FIG. 31. The method, then:
as §1

In series [5] the test system is cell lines including A549 lung, PC3 prostate, K1 and E89 Chinese hamster ovary (CHO), Ramos, DHL-4, and HF-1 B-cell lymphoma. Description: standard tetrazolide reduction proliferation assay. Type of series: cell-based. The conditions noted are these: ZnHPT formed in situ from HPT and zinc.
Method: The proliferation of exponential phase cultures of A549 and PC3 cells is assessed by formazan reduction. In brief, A549 (2000 cells/well) or PC3 (4000 cells/well) cells are seeded on 96-well microtiter plates and allowed to adhere overnight. Stock solutions of ZnHPT or PEGZnHPT in medium are serial diluted in a ratio of 1:4 down the plate. Stock solutions of MGd or ZnOAc2 or 5% mannitol in ACS grade water are added and plates are incubated at 37° C. under a 5% CO2/95% air atmosphere. After 24 hours, medium is replaced with fresh medium. After 2 additional days, medium is exchanged for fresh medium (150 μL/well) supplemented with the tetrazolium dye, 3-(4,5-dimethylthiazol-2-yl)-2,5-diphenyltetrazolium bromide (MTT, Sigma Chemical, 0.5 mg/mL). Plates are incubated at 37° C. and viable cells measured. […] Alternatively cellular reduction within plateau phase cultures is measured after 24 hours of treatment as a measure of the cytotoxicity due to treatment.
A further series deals with thioredoxin reductase. To be noted: cells co-treated with MGd and ZnHPT, previously found.
For series [6] the following is noted: cited from earlier work.
Series [7] has as its system cancer cells. The conditions noted are these: reported; cited from earlier work.
Series [8] concerns A549 human lung cancer cells. The conditions noted are these: A549 xenograft, FIG. 28. The method, then: as §1
For series [9] the following is noted: mouse, in vivo.

Where two headings read alike, the source gives them in different places. A value given as a limit tells only on which side of the number the result lay.

Method for thioredoxin reductase: Thioredoxin reductase activity is assessed by measuring the rate of lipoate reduction. In brief, A549 or PC3 cells (10,000 cells/well) are plated on 96-well plates and allowed to adhere overnight and grow two additional days until confluent. Cells are treated with ZnHPT, PEGZnHPT, MGd, zinc, or 5% mannitol as above for 4 hours. Medium is removed, cells are washed with Hanks Balanced Salt Solution (HBSS), and a solution of 5 mM lipoic acid and 1 mM 5,5′-dithiobis(2-nitrobenzoic acid) in HBSS (100 μL/well) is added. Plates are incubated at ambient temperature in the dark. At chosen time intervals, plate absorbance is measured at 405-650 nm. Plate absorbances are normalized to wells containing neither exogenous zinc nor texaphyrin complex to allow plate-to-plate comparison.

Take `CC(=O)[O-].CC(=O)[O-].CCc1c(CC)c2cc3nc(cnc4cc(OCCOCCOCCOC)c(OCCOCCOCCOC)cc4ncc4nc(cc1[n-]2)C(CCCO)=C4C)C(C)=C3CCCO.O.[Gd+3]` [MGd, motexafin gadolinium]: the intracellular free zinc result with cancer cells [1] is recorded as “increased intracellular free zinc”.
For the molecule Zinquin, in series [2], the logKβ2 entry is reported as “ca. 18”.
Regarding “2-thiol-5-((2-(2-methoxyethoxy)ethoxy)methyl)pyridine-N-oxide, Zn complex [5-PEG-[2]-ZnHPT]”, the “anticancer activity (tumor regrowth) as compared to control vehicle” value in [3] (intravenous 100 μmol/kg q.d.×2 and q.d.×4, formulated in 5% mannitol, FIG. 30) was “significant anticancer activity”.
Turning to “2-thiol-5-((2-methoxyethoxy)methyl)pyridine-N-oxide, Zn complex [5-PEG-[1]-ZnHPT]”, in series [4], the “anticancer activity (tumor regrowth) as compared to control vehicle” value is on record as “significant anticancer activity”.
Take `On1ccccc1=S` [ZnHPT, 1-hydroxypyridine-2-thione]: in series [5], the inhibition of proliferation entry is “inhibits proliferation in a dose dependent manner”. The “inhibition of thioredoxin reductase” value with thioredoxin reductase is “synergistic inhibition”. Besides, the bioavailability entry in [6] (oral, typically formulated as a suspension in vegetable oil) is reported as “poorly bioavailable”. Moreover, the “toxicity on oral administration” value in [6] (orally administered to laboratory animals) is listed as “not found to be particularly toxic”. For the same molecule, the “growth of cancer cells in culture” value in the series with cancer cells [7] is “inhibit the growth of cancer cells in culture”.
In the case of `COCCOCCOCCOCc1ccc([S-])[n+]([O-])c1.COCCOCCOCCOCc1ccc([S-])[n+]([O-])c1.[Zn+2]` [5-PEG-[3]-ZnHPT, 2-thiol-5-((2-(2-(2-methoxyethoxy)ethoxy)ethoxy)methyl)pyridine-N-oxide, Zn complex], the “anticancer activity (tumor regrowth)” value in series [8] (in combination with MGd), in [8] (without MGd) and in series [3] (FIG. 29) was “significant anticancer activity” throughout. Moreover, in [9], the “maximum tested without evidence of toxicity” value is not below 120 µmol/kg.
For `On1ccccc1=S` [HPT], the logKβ2 in series [2] is recorded as 5.4.
